Assay results: patent publication US20100135992A1, “Prolongation of Survival of an Allograft by Inhibiting Complement Activity” (Alexion Pharmaceuticals, Inc., priority 2006, published 2010)

Tests used:
[1] = test system: C3H kidney allografts in presensitized BALB/c recipients; conditions: for nephrotoxicity: kidney allograft model development
Text: Animals Male adult C3H (H-2^k) mice and BALB/c (H-2^d mice (Jackson Labs, Bar Harbor, Me.) weighing 25-30 g were chosen as donors and recipients, respectively. Animals were housed under conventional conditions at the Animal Care Facility, The University of Western Ontario, and were cared for in accordance with the guidelines established by the Canadian Council on Animal Care.
Skin Presensitization Full-thickness skin grafts taken from C3H donors were cut into 1×1 cm^2 pieces and transplanted onto the backs of BALB/c recipient mice. Rejection was defined as complete necrosis of the skin grafts.
The donor ureter was also sutured to the recipient bladder using 10-0 sutures. The native kidneys were removed immediately after grafting. Graft rejection leading to host death was used as the endpoint of rejection for kidney transplants.
Measurement of Serum Creatinine Serum samples were obtained at study endpoint (time of rejection or POD100) after kidney transplantation. Serum creatinine levels were quantitated in 10 μL samples using the Sigma Diagnostics (Sigma, St. Louis, Mo.) procedure, which measures creatinine by a kinetic modification of the Jaffe reaction (Junge et al., 2004). Graft Histology At necropsy, tissue samples were processed for hematoxylin and eosin (H&E) staining (Wang et al, JI 2003) and evaluated for vasculitis, thrombosis, hemorrhage and lymphocyte infiltration; changes were scored as: 0, none; 1, minimal; 2, mild; 3, moderate or 4, marked compared to normal tissues.

[2] = test system: C3H kidney allografts in presensitized BALB/c recipients; test: Immunoperoxidase staining of kidney allografts in presensitized mouse recipients at necropsy; format: in vivo; set-up: key: 0, negative; 1+, equivocal; 2+, weak; 3+, moderate; 4+, intense; conditions: kidney allograft, at the time of rejection
Text: Immunohistochemistry Tissue samples embedded in Optimum Cutting Temperature (O.C.T.) gel (Skura Finetek, Torrance, Calif.) were sectioned and stained for CD4^+, CD8^+ and Mac-1^+ infiltrating cells and for IgG, IgM, C3 and C5 deposition using an Elite Vectastain ABC kit (Vector Laboratories Inc., Burlingame, Calif.). Primary biotinylated antibodies included anti-CD4 (YTS 191.1.2, Cedarlane Laboratories Ltd., Hornby, Ontario, Canada), anti-CD8 (53-6.7, BD Biosciences, Franklin Lakes, N.J.) and anti-Mac-1 (Cedarlane). Intragraft IgG and IgM deposition was detected using biotinylated goat anti-mouse-IgG and goat anti-mouse-IgM (Cedarlane). Complement deposition was detected following serial incubation with goat anti-mouse C3 or anti-mouse C5 polyclonal Abs (Quidel, San Diego, Calif.), biotinylated rabbit anti-goat IgG (Vector Laboratories), and HRP-conjugated-streptavidin (Zymed Laboratories, South San Francisco, Calif.). Negative controls were performed by omitting the primary antibodies. The immunostaining was scored in five high-power fields of each section using tissue samples from five animals per experimental group. Immunoreactivity was graded from 0 to 4+ according to staining intensity as follows: 0, negative; 1+, equivocal; 2+, weak; 3+, moderate; and 4+, very intensive staining.

[3] = test system: terminal complement activity; test: Complement hemolytic assay of recipient mouse sera (kidney model); format: in vivo; conditions: POD7, presensitized kidney recipients, FIG. 12
Description: Complement Hemolytic Assay Terminal complement activity in recipient mouse sera was determined by standard methods to assess the ability of sera to lyse chicken erythrocytes presensitized with erythrocyte-specific antibodies as previously described (Wang et al., 1999).

[4] = test system: circulating anti-donor IgG and IgM antibodies; test: Flow cytometry of circulating anti-donor antibodies (kidney model); format: in vivo, mouse
Description: Flow Cytometry Circulating anti-donor specific IgG and IgM antibodies were evaluated in recipient sera by flow cytometry. Briefly, C3H mouse splenocytes were isolated and incubated at 37° C. for 30 minutes with serum samples obtained at the indicated timepoints from mice from the various treatment groups. To stain for total IgG or specific antibody subclasses, the washed cells were incubated with FITC-conjugated goat anti-mouse antibodies specific for the Fc portion of mouse IgG, mouse IgG1, mouse IgG2a, mouse IgG2b or mouse IgG3 (all from (CALTAG Laboratories, Burlingame, Calif.) or with a phycoerythrin-conjugated goat antibody specific for mouse IgM (Jackson ImmunoResearch Laboratories, West Grove, Pa.) for 1 hour at 4° C., washed and analyzed on a FACScan flow cytometer (Becton Dickinson, Mountain View, Calif.) (Collins et al., 1999; Pratt et al., 1996). The results are expressed as mean channel fluorescence intensity as a measure of the level of each anti-donor isotype in the samples.

[5] = test system: Bcl-2 and Bcl-xl proteins; test: Western blot of kidney grafts; format: in vivo, mouse; conditions: POD100 (accommodated) or rejected grafts, FIG. 14
Text: Western Blot Analysis Frozen kidney samples were sonicated, separated by electrophoresis and transferred to polyvinylidene difluoride (PVDF; Invitrogen) membranes. Intragraft expression of Bcl-2 and Bcl-XS/L was detected using the polyclonal sera N-19 and M-125, respectively (Santa Cruz Biotechnology, Inc.). Polyclonal anti-calsequestrin (Calbiochem) served as a sample loading control (Kobayashi et al., 1999). Antibody binding was detected by horseradish-peroxidase-conjugated goat anti-rabbit IgG and enhanced chemiluminescence development (Roche Laboratories) (Arp et al., 1996).

[6] = test system: cardiac allograft in presensitized rats; conditions: cyclosporin A 10 mg/kg/day i.m., sCR1 15 mg/kg single i.v. bolus; cited from earlier work
[7] = test system: C3H heart allografts in presensitized BALB/c recipients; test: C3H heart allograft survival and histology in skin-presensitized BALB/c recipients (Examples 1-2); format: in vivo, mouse; conditions: FIG. 2A
Text: Rejection was defined as complete necrosis of the skin grafts.
Specimens were then embedded in paraffin, and sectioned for H&E staining. The microscopic sections were examined in a blinded fashion for severity of rejection by a pathologist. Criteria for graft rejection included the presence of vasculitis, thrombosis, hemorrhage and lymphocyte infiltration. These changes were scored as: 0, no change; 1, minimum change; 2, mild change; 3, moderate change; or 4, marked change.

[8] = test system: C3H heart allografts in presensitized BALB/c recipients; test: Immunoperoxidase staining of heart allografts in presensitized mouse recipients at necropsy; format: in vivo; set-up: key: 0, negative; 1+, equivocal; 2+, weak; 3+, moderate; 4+, intense; conditions: heart allograft, POD 3
Text: Immunohistochemistry Four micrometer sections were cut from tissue samples embedded in Tissue-Tek O.C.T gel (Optimum Cutting Temperature, Skura Finetek, Torrance, Calif.) mounted on gelatin-coated glass microscope slides and stained by a standard indirect avidin-biotin immunoperoxidase staining method using an Elite Vcctastain ABC kit (Vector Laboratories Inc., Burlingame, Calif.). Specimens were stained for CD4^+ and CD8^+ cells with biotin-conjugated rat anti-mouse CD4 mAb (clone YTS 191.1.2, Cedarlane Laboratories Ltd., Hornby, Ontario, Canada) and biotin-conjugated rat anti-mouse CD8 mAb (clone 53-6.7, Pharmingen, Franklin Lakes, N.J.), respectively. Intragraft monocyte/macrophage infiltration was detected by staining with biotin-conjugated rat anti-mouse Mac-1 mAb (Cedarlane Laboratories Ltd., Hornby, Ontario, Canada). Mouse IgG and IgM deposition in gratis was detected using biotin-conjugated goat anti-mouse-IgG and goat anti-mouse-IgM (Cedarlane). For identification of complement deposition, sections were serially incubated with goat anti-C3 or anti-C5 polyclonal Abs (Quidel, San Diego, Calif.), biotinylated rabbit anti-goat IgG (Vector Laboratories), and HRP-conjugated-streptavidin (Zymed Laboratories, South San Francisco, Calif.). Slides were washed with phosphate-buffered saline between steps, and examined under light microscopy. Negative controls were performed by omitting the primary antibodies. The immunostaining was scored in five high-power fields of each section, and five independent experiments were performed. The sections of immunoperoxidase staining were graded from 0 to 4+ according to the staining intensity: 0, negative; 1+, equivocal; 2+, weak staining; 3+, moderate staining; and 4+, very intensive staining.

[9] = test system: terminal complement activity; test: Complement hemolytic assay of recipient mouse sera (heart model); format: in vivo; conditions: POD3, presensitized heart recipients, FIG. 3
Description: Complement Hemolytic Assay The purified anti-C5 mAb was serially diluted twofold (175-0.1 μg/ml) in GVB^2+ buffer (gelatin Veronal-buffered saline: 0.1% gelatin, 141 mM NaCl, 0.5 mM MgCl2, 0.15 mM CaCl2, and 1.8 mM sodium barbital) and added in triplicate (50 μl/well) to a 96-well plate. BALB/c mouse serum was diluted to 40% v/v with GVB^2+ buffer and added ([…]) to the rows of the same 96-well plate such that the final concentration of BALB/c mouse serum in each well was 20%. The plate was then incubated at room temperature for approximately 30 min while chicken erythrocytes were prepared. Chicken erythrocytes were washed 5×1 ml with GVB^2+ buffer and resuspended to a final concentration of 5×10^7/ml in GVB^2+. Four milliliters of the chicken erythrocytes were sensitized by adding anti-chicken RBC polyclonal antibody (Intercell Technologies, Hopewell, N.J., 0.1% v/v) and the cells were incubated at 4° C. for 15 min with frequent vortexing. The cells were then washed 2×1 ml with GVB^2+ and resuspended to a final volume of 2.4 ml in GVB^2+. […] The plate was read at OD 415 nm using a microplate reader and the percentage of hemolysis was determined using this formula: […]
In the current study, terminal complement activity was measured by assessing the ability of recipient mouse sera to lyse antibody presensitized chicken erythrocytes and was compared at the same time-point (POD3).

[10] = test system: circulating anti-donor IgG and IgM antibodies; test: Flow cytometry of circulating anti-donor antibodies (heart model); format: in vivo, mouse; conditions: POD3, presensitized heart recipients, FIG. 4A
Description: Flow Cytometry The circulating anti-donor specific IgG and IgM antibodies were evaluated in the recipient serum by FACScan flow cytometry (Becton Dickinson, Mountain View, Calif.). Glotz et al., (1993); Tyan et al. (1994). Briefly, C3H mouse splenocytes were isolated and incubated at 37° C. for 30 minutes with serum from naive control and experimental groups. To stain for total IgG, IgG1, IgG2a, IgG2b and IgM, the cells were washed and incubated with FITC-conjugated goat antibody specific for the Fc portion of mouse IgG or with phycoerythrin-conjugated goat antibody specific for the μ-chain of mouse IgM (Jackson ImmunoResearch Laboratories, West Grove, Pa.), or with FITC-conjugated goat anti-mouse IgG1 (CALTAG Laboratories, Burlingame, Calif.), or with FITC-conjugated goat anti-mouse IgG2a (CALTAG), or with FITC-conjugated goat anti-mouse IgG2b (CALTAG). After 1 hour of staining at 4° C., the cells were washed with PBS, resuspended at 5×10^6/mL, and analyzed by flow cytometry for mean channel fluorescence intensity, which represents the antibody-binding reactivity.

[11] = test system: C3H heart allografts in presensitized BALB/c mice; test: Heart allograft survival, accelerated rejection in presensitized model (Example 4); format: in vivo, mouse; conditions: presensitized recipients
Text: In these experiments, the presensitization was brought about by prior transplantation of a skin graft. In general, presensitization can occur not only as a result of having received an earlier allograft, but can also be caused by having received multiple blood transfusions or in women who have been pregnant. Besides such presensitization methods, allografts with an ABO mismatch will be rapidly attacked and rejected because of preformed antibodies to the ABO antigens unless steps are taken to prevent such an attack.
(§1) This model is designed to mimic presensitized transplantation in humans, especially in relation to accelerated humoral rejection. Recipient mice were split into eight groups of six to eight mice each. The treatments were as follow.
Group 3″ (BB5.1 alone)—mice were administered the anti-mouse complement monoclonal antibody BB5.1 at a dose of 40 mg/kg body weight delivered intraperitoneally on a daily basis beginning at day −1 and continuing until the endpoint.
Group 4″ (cyclophosphamide alone)—mice were administered cyclophosphamide intravenously at a dose of 40 mg/kg body weight on each of days 0 and 1.
Group 6″ (BB5.1 plus cyclophosphamide)—mice were administered BB5.1 intraperitoneally at a dose of 40 mg/kg body weight on a daily basis beginning at day −1 and continuing until the endpoint. […]

[12] = test system: C3H heart allografts in presensitized BALB/c mice; test: Histological changes of heart allografts at necropsy (Example 4); format: in vivo, mouse; conditions: endpoint, score 0 normal to 4 marked change
Text: as §1

C[C@@H](N)CCNCCCCNC(=O)OCC(=O)NCCCCCCNC(=N)N [LF, LF15-0195]
nephrotoxicity [1]: not associated with nephrotoxicity
kidney graft survival (time to rejection) ([1]; presensitized recipients, FIG. 11A): 6.0 ± 1.0 days
C3 immunoperoxidase staining [2]: 3+
C5 immunoperoxidase staining [2]: 3+
IgG immunoperoxidase staining [2]: 3+
IgM immunoperoxidase staining [2]: 1+
Mac-1 immunoperoxidase staining [2]: 4+
terminal/serum complement activity (in vitro serum hemolytic assay) [3]: no inhibitory effect
circulating anti-donor IgG levels ([4]; kidney recipients at time of rejection, triple-therapy POD 100, FIG. 13A): partially reduced
predominant anti-donor IgG subclass ([4]; presensitized kidney recipients, FIG. 13B): IgG1, IgG2a and IgG3
expression of Bcl-2 and Bcl-xl proteins in kidney grafts [5]: undetectable

sCR1: soluble complement receptor 1, binds complements C3b and C4b
average time of graft rejection [6]: 44 days

O=P1(N(CCCl)CCCl)NCCCO1 (centres unmarked) [CyP, cyclophosphamide]
heart graft survival (time to rejection) [7]: 3.3 ± 0.5 days
C3 immunoperoxidase staining grade [8]: 3+
C5 immunoperoxidase staining grade [8]: 3+
CD4 immunoperoxidase staining grade [8]: 1+
CD8 immunoperoxidase staining grade [8]: 1+
IgG immunoperoxidase staining grade [8]: 3+
IgM immunoperoxidase staining grade [8]: 1+
Mac-1 immunoperoxidase staining grade [8]: 3+
terminal complement activity (lysis of antibody presensitized chicken erythrocytes by recipient sera) [9]: no effect
circulating anti-donor IgG levels [10]: partially down-regulated
Mean survival time [11]: 3.3 ± 0.5 days
Hemo (hemorrhage) median score [12]: 2.0
Infar (infarction) median score [12]: 4.0
Lymph (lymphocyte infiltration) median score [12]: 0.0
Throm (thrombosis) median score [12]: 3.0
Vasc (vasculitis) median score [12]: 2.0
nephrotoxicity [1]: significant nephrotoxicity
